Assay results as given in patent US20150239889A1, “PYRAZOLOPYRIMIDINE COMPOUND” (MITSUBISHI TANABE PHARMA CORPORATION, priority 2012, published 2015).

Molecular target: T1, human HIF-PHD2 (Homo sapiens, UniProt Q9GZT9)
T1 construct: purchased CrystalGenomics Ltd
Experiment: HIF-PHD inhibition assay (fluorescence polarization), human HIF-PHD2
Format: biochemical
Conditions: 2-oxoglutaric acid 3.33 μmol/L
Outline: (§1)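 Activity was derived as the fluorescence polarization (mP) after enzyme addition minus that measured before enzyme addition. Probe bore a 5′-fluoresceinamide (FAM) label with an aminocaproic acid (ACA) linker.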

T1 sequence (Q9GZT9 2-426 limits assumed): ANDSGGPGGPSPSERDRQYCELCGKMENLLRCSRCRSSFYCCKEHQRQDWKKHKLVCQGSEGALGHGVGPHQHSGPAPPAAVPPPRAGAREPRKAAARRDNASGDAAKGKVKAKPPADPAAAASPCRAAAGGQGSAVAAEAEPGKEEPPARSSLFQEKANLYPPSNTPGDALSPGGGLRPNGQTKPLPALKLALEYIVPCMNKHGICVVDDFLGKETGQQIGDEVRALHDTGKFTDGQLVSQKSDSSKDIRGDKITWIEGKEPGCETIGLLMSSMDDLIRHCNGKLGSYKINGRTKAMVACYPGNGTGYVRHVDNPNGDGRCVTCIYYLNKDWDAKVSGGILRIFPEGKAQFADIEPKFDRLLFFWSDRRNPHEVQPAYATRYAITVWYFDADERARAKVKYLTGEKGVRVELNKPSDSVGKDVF

Point of comparison: CC(C)[C@H]1CC[C@H](Cn2nc(Cl)c3nc(-n4cc(C(=O)O)cn4)nc(O)c32)CC1 [Example 224], IC50 11 nM. Against it:
- O=C(O)c1cnn(-c2nc(O)c3c(n2)c(F)nn3CC2CCCCC2)c1 [Example 217] — 2.9-fold higher, 32 nM
- Cc1ccccc1-c1ccc(Cn2ncc3nc(-n4cc(C(=O)O)cn4)nc(O)c32)c(F)c1 [Example 83] — 3-fold higher, 33 nM
- O=C(O)c1cnn(-c2nc(O)c3c(cnn3Cc3ccc(-c4ccccc4F)cc3)n2)c1 [Example 56] — within 1.5-fold, 16 nM
- O=C(O)c1cnn(-c2nc(O)c3c(cnn3Cc3ccc(-c4ccccc4OC(F)(F)F)cc3F)n2)c1 [Example 86] — 1.9-fold higher, 21 nM
- O=C(O)c1cnn(-c2nc(O)c3c(cnn3CC3CCCCC3)n2)c1 [Example 136] — 2.8-fold higher, 31 nM
- O=C(O)c1cnn(-c2nc(O)c3c(cnn3CCCOc3ccc(-c4ccccc4)cc3)n2)c1 [Example 196] — 1.8-fold higher, 20 nM
- C[C@H](c1ccc(Cl)cc1)n1ncc2nc(-n3cc(C(=O)O)cn3)nc(O)c21 [Example 20] — 5.9-fold higher, 65 nM
- O=C(O)c1cnn(-c2nc(O)c3c(cnn3C3CCCCC3)n2)c1 [Example 135] — 6.7-fold higher, 74 nM
- O=C(O)c1cnn(-c2nc(O)c3nn(C(c4ccc(Cl)cc4)c4ccc(Cl)cc4)cc3n2)c1 [Example 239] — 2-fold lower, 5.5 nM
- O=C(O)c1cnn(-c2nc(O)c3c(cnn3CCc3cccc(Cl)c3)n2)c1 [Example 114] — 1.8-fold higher, 20 nM
- O=C(O)c1cnn(-c2nc(O)c3c(cnn3CCCOc3cccc4c3CCCC4)n2)c1 [Example 193] — 7.7-fold higher, 85 nM
- O=C(O)c1cnn(-c2nc(O)c3c(cnn3CC3CCC4(CCC4)CC3)n2)c1 [Example 379] — within 1.5-fold, 16 nM
- O=C(O)c1cnn(-c2nc(O)c3nn(Cc4ccc(Cl)c(Cl)c4)cc3n2)c1 [Example 235] — 3.7-fold lower, 3 nM
- O=C(O)c1cnn(-c2nc(O)c3c(cnn3Cc3cccc(-c4ccc(F)cc4)c3)n2)c1 [Example 40] — the same, 11 nM
- O=C(O)c1cnn(-c2nc(O)c3nn(Cc4ccc(Cl)cc4F)cc3n2)c1 [Example 244] — 5.7-fold higher, 63 nM
- O=C(O)c1cnn(-c2nc(O)c3c(cnn3CCOc3cccc4ccccc34)n2)c1 [Example 206] — 2.9-fold higher, 32 nM
- O=C(O)c1cnn(-c2nc(O)c3c(cnn3Cc3cccc(C(F)(F)F)c3)n2)c1 [Example 9] — 3-fold higher, 33 nM
- O=C(O)c1cnn(-c2nc(O)c3c(cnn3Cc3cccc(-c4ccc(OC(F)(F)F)cc4)c3)n2)c1 [Example 43] — within 1.5-fold, 15 nM
- C[C@@H](c1ccc(C(F)(F)F)cc1)n1nc(Cl)c2nc(-n3cc(C(=O)O)cn3)nc(O)c21 [Example 443] — within 1.5-fold, 16 nM
- C[C@@H](c1ccc(Cl)c(Cl)c1)n1nc(F)c2nc(-n3cc(C(=O)O)cn3)nc(O)c21 [Example 440] — 1.5-fold higher, 17 nM
- Cc1ccc2cc(CCn3ncc4nc(-n5cc(C(=O)O)cn5)nc(O)c43)ccc2c1 [Example 127] — 1.8-fold lower, 6.2 nM
- O=C(O)c1cnn(-c2nc(O)c3c(cnn3CCCOc3ccc(Cl)c4c3CCC4)n2)c1 [Example 194] — within 1.5-fold, 14 nM
- CC(C)(Cn1ncc2nc(-n3cc(C(=O)O)cn3)nc(O)c21)c1ccc(Cl)cc1 [Example 120] — 4.9-fold higher, 54 nM
- CC(C)(C)c1ccc(OCCn2ncc3nc(-n4cc(C(=O)O)cn4)nc(O)c32)cc1 [Example 204] — 1.7-fold higher, 19 nM
- O=C(O)c1cnn(-c2nc(O)c3nn(Cc4cc(C(F)(F)F)cc(Cl)c4F)cc3n2)c1 [Example 238] — within 1.5-fold, 10 nM

Molecular target: T2, human HIF-PHD3 (Homo sapiens, UniProt Q9H6Z9)
T2 construct: purchased CrystalGenomics Ltd
Experiment: HIF-PHD inhibition assay (fluorescence polarization), human HIF-PHD3
Format: biochemical
Conditions: 2-oxoglutaric acid 166 μmol/L
Outline: as §1

T2 sequence (Q9H6Z9 whole entry): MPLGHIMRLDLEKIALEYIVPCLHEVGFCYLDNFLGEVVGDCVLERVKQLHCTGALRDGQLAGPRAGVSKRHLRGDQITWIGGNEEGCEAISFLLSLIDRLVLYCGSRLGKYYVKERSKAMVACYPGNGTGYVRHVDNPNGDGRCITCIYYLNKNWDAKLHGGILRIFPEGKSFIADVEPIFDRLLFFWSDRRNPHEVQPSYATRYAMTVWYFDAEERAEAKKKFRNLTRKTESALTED

Point of comparison: O=C(O)c1cnn(-c2nc(O)c3c(n2)c(F)nn3CC2CCCCC2)c1 [Example 217], IC50 920 nM. Against it:
- Cc1ccccc1-c1ccc(Cn2ncc3nc(-n4cc(C(=O)O)cn4)nc(O)c32)c(F)c1 [Example 83] — 3.8-fold lower, 240 nM
- O=C(O)c1cnn(-c2nc(O)c3c(cnn3Cc3ccc(-c4ccccc4F)cc3)n2)c1 [Example 56] — 3.5-fold lower, 260 nM
- O=C(O)c1cnn(-c2nc(O)c3c(cnn3Cc3ccc(-c4ccccc4OC(F)(F)F)cc3F)n2)c1 [Example 86] — 2.8-fold lower, 330 nM
- O=C(O)c1cnn(-c2nc(O)c3c(cnn3CC3CCCCC3)n2)c1 [Example 136] — 2.9-fold lower, 320 nM
- O=C(O)c1cnn(-c2nc(O)c3c(cnn3CCCOc3ccc(-c4ccccc4)cc3)n2)c1 [Example 196] — 3.1-fold lower, 300 nM
- C[C@H](c1ccc(Cl)cc1)n1ncc2nc(-n3cc(C(=O)O)cn3)nc(O)c21 [Example 20] — within 1.5-fold, 1200 nM
- O=C(O)c1cnn(-c2nc(O)c3c(cnn3C3CCCCC3)n2)c1 [Example 135] — 2.4-fold lower, 380 nM
- O=C(O)c1cnn(-c2nc(O)c3nn(C(c4ccc(Cl)cc4)c4ccc(Cl)cc4)cc3n2)c1 [Example 239] — 9.3-fold lower, 99 nM
- CC(C)[C@H]1CC[C@H](Cn2nc(Cl)c3nc(-n4cc(C(=O)O)cn4)nc(O)c32)CC1 [Example 224] — 10-fold lower, 91 nM
- O=C(O)c1cnn(-c2nc(O)c3c(cnn3CCc3cccc(Cl)c3)n2)c1 [Example 114] — 3.1-fold lower, 300 nM
- O=C(O)c1cnn(-c2nc(O)c3c(cnn3CCCOc3cccc4c3CCCC4)n2)c1 [Example 193] — 4.8-fold lower, 190 nM
- O=C(O)c1cnn(-c2nc(O)c3c(cnn3CC3CCC4(CCC4)CC3)n2)c1 [Example 379] — 4.6-fold lower, 200 nM
- O=C(O)c1cnn(-c2nc(O)c3nn(Cc4ccc(Cl)c(Cl)c4)cc3n2)c1 [Example 235] — 71-fold lower, 13 nM
- O=C(O)c1cnn(-c2nc(O)c3c(cnn3Cc3cccc(-c4ccc(F)cc4)c3)n2)c1 [Example 40] — 6.6-fold lower, 140 nM
- O=C(O)c1cnn(-c2nc(O)c3nn(Cc4ccc(Cl)cc4F)cc3n2)c1 [Example 244] — 5.1-fold lower, 180 nM
- O=C(O)c1cnn(-c2nc(O)c3c(cnn3CCOc3cccc4ccccc34)n2)c1 [Example 206] — 1.8-fold lower, 510 nM
- O=C(O)c1cnn(-c2nc(O)c3c(cnn3Cc3cccc(C(F)(F)F)c3)n2)c1 [Example 9] — 2.2-fold lower, 410 nM
- O=C(O)c1cnn(-c2nc(O)c3c(cnn3Cc3cccc(-c4ccc(OC(F)(F)F)cc4)c3)n2)c1 [Example 43] — 4.6-fold lower, 200 nM
- C[C@@H](c1ccc(C(F)(F)F)cc1)n1nc(Cl)c2nc(-n3cc(C(=O)O)cn3)nc(O)c21 [Example 443] — 3.7-fold lower, 250 nM
- C[C@@H](c1ccc(Cl)c(Cl)c1)n1nc(F)c2nc(-n3cc(C(=O)O)cn3)nc(O)c21 [Example 440] — 5.8-fold lower, 160 nM
- Cc1ccc2cc(CCn3ncc4nc(-n5cc(C(=O)O)cn5)nc(O)c43)ccc2c1 [Example 127] — 15-fold lower, 62 nM
- O=C(O)c1cnn(-c2nc(O)c3c(cnn3CCCOc3ccc(Cl)c4c3CCC4)n2)c1 [Example 194] — 17-fold lower, 53 nM
- CC(C)(Cn1ncc2nc(-n3cc(C(=O)O)cn3)nc(O)c21)c1ccc(Cl)cc1 [Example 120] — within 1.5-fold, 890 nM
- CC(C)(C)c1ccc(OCCn2ncc3nc(-n4cc(C(=O)O)cn4)nc(O)c32)cc1 [Example 204] — within 1.5-fold, 650 nM
- O=C(O)c1cnn(-c2nc(O)c3nn(Cc4cc(C(F)(F)F)cc(Cl)c4F)cc3n2)c1 [Example 238] — within 1.5-fold, 770 nM

Test system: Hep3B cells
Experiment: EPO production assay (ELISA of culture supernatant)
Format: cell-based
Conditions: Homo sapiens, 3 μmol/L test compound, 48 hours, relative to control (0.1% DMSO), read-out: EPO production stimulation rate with 3 μmol/L test compound
Outline: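 Hep3B cells (40000/well) switched to MEM with 0.5% FBS and treated with compound (0.1% DMSO) for 48 h at 37 °C. Supernatant EPO measured by ELISA; value is fold stimulation at 3 μmol/L compound over unstimulated control.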

Point of comparison: O=C(O)c1cnn(-c2nc(O)c3c(cnn3Cc3cccc(-c4ccc(F)cc4)c3)n2)c1 [Example 40], fold induction at 3 µM 5. Against it:
- O=C(O)c1cnn(-c2nc(O)c3c(n2)c(F)nn3CC2CCCCC2)c1 [Example 217] — lower, 2.4
- Cc1ccccc1-c1ccc(Cn2ncc3nc(-n4cc(C(=O)O)cn4)nc(O)c32)c(F)c1 [Example 83] — higher, 6.2
- O=C(O)c1cnn(-c2nc(O)c3c(cnn3Cc3ccc(-c4ccccc4F)cc3)n2)c1 [Example 56] — higher, 19
- O=C(O)c1cnn(-c2nc(O)c3c(cnn3Cc3ccc(-c4ccccc4OC(F)(F)F)cc3F)n2)c1 [Example 86] — lower, 2.5
- O=C(O)c1cnn(-c2nc(O)c3c(cnn3CC3CCCCC3)n2)c1 [Example 136] — higher, 8.5
- O=C(O)c1cnn(-c2nc(O)c3c(cnn3CCCOc3ccc(-c4ccccc4)cc3)n2)c1 [Example 196] — higher, 25
- C[C@H](c1ccc(Cl)cc1)n1ncc2nc(-n3cc(C(=O)O)cn3)nc(O)c21 [Example 20] — higher, 5.5
- O=C(O)c1cnn(-c2nc(O)c3c(cnn3C3CCCCC3)n2)c1 [Example 135] — higher, 6.1
- O=C(O)c1cnn(-c2nc(O)c3nn(C(c4ccc(Cl)cc4)c4ccc(Cl)cc4)cc3n2)c1 [Example 239] — lower, 1.4
- CC(C)[C@H]1CC[C@H](Cn2nc(Cl)c3nc(-n4cc(C(=O)O)cn4)nc(O)c32)CC1 [Example 224] — higher, 8.4
- O=C(O)c1cnn(-c2nc(O)c3c(cnn3CCc3cccc(Cl)c3)n2)c1 [Example 114] — higher, 5.2
- O=C(O)c1cnn(-c2nc(O)c3c(cnn3CCCOc3cccc4c3CCCC4)n2)c1 [Example 193] — higher, 9.8
- O=C(O)c1cnn(-c2nc(O)c3c(cnn3CC3CCC4(CCC4)CC3)n2)c1 [Example 379] — higher, 10
- O=C(O)c1cnn(-c2nc(O)c3nn(Cc4ccc(Cl)c(Cl)c4)cc3n2)c1 [Example 235] — lower, 1.9
- O=C(O)c1cnn(-c2nc(O)c3nn(Cc4ccc(Cl)cc4F)cc3n2)c1 [Example 244] — lower, 1.4
- O=C(O)c1cnn(-c2nc(O)c3c(cnn3CCOc3cccc4ccccc34)n2)c1 [Example 206] — lower, 2.2
- O=C(O)c1cnn(-c2nc(O)c3c(cnn3Cc3cccc(C(F)(F)F)c3)n2)c1 [Example 9] — lower, 2.8
- O=C(O)c1cnn(-c2nc(O)c3c(cnn3Cc3cccc(-c4ccc(OC(F)(F)F)cc4)c3)n2)c1 [Example 43] — higher, 6.5
- C[C@@H](c1ccc(C(F)(F)F)cc1)n1nc(Cl)c2nc(-n3cc(C(=O)O)cn3)nc(O)c21 [Example 443] — lower, 2.9
- C[C@@H](c1ccc(Cl)c(Cl)c1)n1nc(F)c2nc(-n3cc(C(=O)O)cn3)nc(O)c21 [Example 440] — lower, 2.6
- Cc1ccc2cc(CCn3ncc4nc(-n5cc(C(=O)O)cn5)nc(O)c43)ccc2c1 [Example 127] — higher, 17
- O=C(O)c1cnn(-c2nc(O)c3c(cnn3CCCOc3ccc(Cl)c4c3CCC4)n2)c1 [Example 194] — higher, 18
- CC(C)(Cn1ncc2nc(-n3cc(C(=O)O)cn3)nc(O)c21)c1ccc(Cl)cc1 [Example 120] — higher, 9.7
- CC(C)(C)c1ccc(OCCn2ncc3nc(-n4cc(C(=O)O)cn4)nc(O)c32)cc1 [Example 204] — higher, 12
- O=C(O)c1cnn(-c2nc(O)c3nn(Cc4cc(C(F)(F)F)cc(Cl)c4F)cc3n2)c1 [Example 238] — lower, 0.7
